Values of other authors, collected in US20230228656A1, “Functionalized Blood Sampling Device and Method for PEth Measurement” (CAPITAINER AB, priority 2020, published 2023).

Test system: PLD
Details: literature assessment; considered unsuitable for clinical use; cited from earlier work

Compound	potency as PLD inhibitor
O=C(NCCN1CCC(n2c(=O)[nH]c3cc(Cl)ccc32)CC1)c1ccc(F)cc1 [halopemide]	low potency
O=C(NCCN1CCC(n2c(=O)[nH]c3ccccc32)CC1)c1cc2cc(F)ccc2[nH]1 [FIPI, 5-fluoro-2-indolyl-deschlorohalopemide]	low potency
